# Experimental data: patent US20050112573A1, “Method of detecting toxic substance” (priority 2001, published 2005)
# System: yeast genes (level of expressed mRNA)
# Experiment: DNA chip analysis of expressed mRNA of yeast genes after 2 h culture with a toxic chemical substance
# Format: cell-based, Saccharomyces cerevisiae S288C
# Procedure: Yeast (Saccharomyces cerevtisiae S288C (α SUC2mal mel gap2 CUP1)) were cultured at 25° C. on YPD medium (yeast extract 1%, polypepton 2%, glucose 2%). One of toxic chemical substances was added to the cell at logarithmic growth phase, and the cell was further cultured for two hours. Cell was cultured without any chemical substance in the same condition, and was used as control. Concentrations of the chemical substances were defined to inhibit the growth of the yeast but not lead to death.
# After the completion of cultivation, the culture was centrifuged to collect the cells. To the cells, sodium acetate buffer (50 mM sodium acetate, 10 mM EDTA, 1% SDS) was added, and the mixture was shaken at 65° C. for five minutes, followed by returning to room temperature, and obtaining the supernatant, which procedure was repeated two times. To the supernatant, ½ amount of a solution of phenol/chloroform was added, and the mixture was centrifuged to give a supernatant, which was added with an equal amount of chloroform, and the mixture was centrifuged to give a supernatant. To the supernatant, an equal amount of isopropanol containing 0.3 M sodium acetate was added, and the mixture was allowed to stand at room temperature for 30 minutes, after which the mixture was centrifuged to give a sediment of the whole RNAs. Seventy % ethanol was added to the sediment, and the mixture was again centrifuged to give a sediment, which was then dried and dissolved in water. mRNA was isolated from the whole RNAs as followings. In view of the fact that a poly A chain is attached to the 3′ terminus of mRNA, a polynucleotide having a poly T structure which was immobilized on the surface of latex beads was used to trap the mRNA, and then the mRNA was washed and eluted with spine column (Oligotex-dT30<Super>mRNA Purification Kit, Takara). Reverse transcription of the mRNA was conducted with a reverse transcriptase (Super Script II Reverse Transcriptase; catalogue No. 18064-014, GibcoBRL) using fluorescence-labeled nucleotides to give cDNAs that were introduced with Cy3-dUTP or Cy5-dUTP during the reverse transcription.
# The labeled cDNAs were dissolved in TE buffer (10 mM Tris-HCl/1 mM EDTA, pH8.0), and the solution was dropped on the DNA chip containing the whole genes of yeast (DNA Chip Research Inc. Japan) so that the cDNAs were hybridized on the DNA chip at 65° C. for over 12 hours. The fluoresces intensity of the DNA chip was read with a scanner, and the ratio relative to the fluorescence intensity resulting from the absence of chemical substance was estimated as the following, which is shown in Tables 1 to 9: [formula]
# In the Tables, “Intensity” indicated in the rightmost column is a value of the level of expressed mRNA of each gene in control cells as divided by the average level of the expressions of the whole genes.
substance,measurement,setting,value
manganese ethylenebis(dithiocarbamate) [(8)],The level of expressed mRNA in the presence of chemical substance/,"yeast gene YNL074C, ratio to control without chemical substance, 2 h culture",0.6
same,The level of expressed mRNA in the presence of chemical substance/,"yeast gene YNL092W, ratio to control without chemical substance, 2 h culture",0.9
same,The level of expressed mRNA in the presence of chemical substance/The level of expressed mRNA in the absence of chemical substance,yeast gene YNL093W,0.8
same,The level of expressed mRNA in the presence of chemical substance/,"yeast gene YNL115C, ratio to control without chemical substance, 2 h culture",0.8
same,The level of expressed mRNA in the presence of chemical substance/,"yeast gene YNL156C, ratio to control without chemical substance, 2 h culture",1.2
same,The level of expressed mRNA in the presence of chemical substance/,"yeast gene YNL234W, ratio to control without chemical substance, 2 h culture",1.3
same,The level of expressed mRNA in the presence of chemical substance/,"yeast gene YNL281W, ratio to control without chemical",1.2
same,The level of expressed mRNA in the presence of chemical substance/,"yeast gene YNL305C, ratio to control without chemical",0.7
same,The level of expressed mRNA in the presence of chemical substance/The level of expressed mRNA in the absence of chemical substance,yeast gene YNL333W,2.1
same,The level of expressed mRNA in the presence of chemical substance/The level of expressed mRNA in the absence of chemical substance,yeast gene YNR010W,1.1
same,The level of expressed mRNA in the presence of chemical substance/,"yeast gene YNR068C, ratio to control without chemical",1.1
same,The level of expressed mRNA in the presence of chemical substance/The level of expressed mRNA in the absence of chemical substance,yeast gene YNR069C,1.4
same,The level of expressed mRNA in the presence of chemical substance/in the absence of chemical substance,yeast gene YNR072W,0.9
same,The level of expressed mRNA in the presence of chemical substance/The level of expressed mRNA in the absence of chemical substance,yeast gene YOL013C,1.0
same,The level of expressed mRNA in the presence of chemical substance/,"yeast gene YOL032W, ratio to control without chemical",1.5
same,The level of expressed mRNA in the presence of chemical substance/,"yeast gene YOL036W, ratio to control without chemical",0.8
same,The level of expressed mRNA in the presence of chemical substance/,"yeast gene YOL047C, ratio to control without chemical",1.1
same,The level of expressed mRNA in the presence of chemical substance/,"yeast gene YOL071W, ratio to control without chemical",1.6
same,The level of expressed mRNA in the presence of chemical substance/,"yeast gene YOL082W, ratio to control without chemical",1.1
same,The level of expressed mRNA in the presence of chemical substance/,"yeast gene YOL083W, ratio to control without chemical",1.3
same,The level of expressed mRNA in the presence of chemical substance/in the absence of chemical substance,yeast gene YOL096C,1.0
same,The level of expressed mRNA in the presence of chemical substance/,"yeast gene YOL117W, ratio to control without chemical",1.1
same,The level of expressed mRNA in the presence of chemical substance/,"yeast gene YOL131W, ratio to control without chemical",1.1
same,The level of expressed mRNA in the presence of chemical substance/,"yeast gene YOL150C, ratio to control without chemical substance, 2 h culture",3.7
same,The level of expressed mRNA in the presence of chemical substance/,"yeast gene YOL162W, ratio to control without chemical",1.6
same,The level of expressed mRNA in the presence of chemical substance/The level of expressed mRNA in the absence of chemical substance,yeast gene YOL164W,1.0
same,The level of expressed mRNA in the presence of chemical substance/,"yeast gene YOR019W, ratio to control without chemical",1.1
same,The level of expressed mRNA in the presence of chemical substance/The level of expressed mRNA in the absence of chemical substance,yeast gene YOR036W,1.4
same,The level of expressed mRNA in the presence of chemical substance/The level of expressed mRNA in the absence of chemical substance,yeast gene YOR117W,1.0
same,The level of expressed mRNA in the presence of chemical substance/The level of expressed mRNA in the absence of chemical substance,yeast gene YOR124C,1.3
same,The level of expressed mRNA in the presence of chemical substance/The level of expressed mRNA in the absence of chemical substance,yeast gene YOR132W,1.2
same,The level of expressed mRNA in the presence of chemical substance/The level of expressed mRNA in the absence of chemical substance,yeast gene YOR157C,1.2
same,The level of expressed mRNA in the presence of chemical substance/in the absence of chemical substance,yeast gene YOR180C,0.9
same,The level of expressed mRNA in the presence of chemical substance/The level of expressed mRNA in the absence of chemical substance,yeast gene YOR181W,0.7
same,The level of expressed mRNA in the presence of chemical substance/The level of expressed mRNA in the absence of chemical substance,yeast gene YOR185C,1.4
same,The level of expressed mRNA in the presence of chemical substance/,"yeast gene YOR197W, ratio to control without chemical",0.9
same,The level of expressed mRNA in the presence of chemical substance/The level of expressed mRNA in the absence of chemical substance,yeast gene YOR198C,1.3
same,The level of expressed mRNA in the presence of chemical substance/The level of expressed mRNA in the absence of chemical substance,yeast gene YOR259C,1.1
same,The level of expressed mRNA in the presence of chemical substance/The level of expressed mRNA in the absence of chemical substance,yeast gene YOR261C,2.6
same,The level of expressed mRNA in the presence of chemical substance/The level of expressed mRNA in the absence of chemical substance,yeast gene YOR288C,1.9
same,The level of expressed mRNA in the presence of chemical substance/The level of expressed mRNA in the absence of chemical substance,yeast gene YOR355W,0.8
same,The level of expressed mRNA in the presence of chemical substance/in the absence of chemical substance,yeast gene YOR363C,1.1
same,The level of expressed mRNA in the presence of chemical substance/The level of expressed mRNA in the absence of chemical substance,yeast gene YOR383C,1.0
same,The level of expressed mRNA in the presence of chemical substance/,"yeast gene YPL087W, ratio to control without chemical",1.0
same,The level of expressed mRNA in the presence of chemical substance/The level of expressed mRNA in the absence of chemical substance,yeast gene YPL089C,0.8
same,The level of expressed mRNA in the presence of chemical substance/The level of expressed mRNA in the absence of chemical substance,yeast gene YPL109C,1.1
same,The level of expressed mRNA in the presence of chemical substance/The level of expressed mRNA in the absence of chemical substance,yeast gene YPL149W,1.1
same,The level of expressed mRNA in the presence of chemical substance/The level of expressed mRNA in the absence of chemical substance,yeast gene YPL154C,0.8
same,The level of expressed mRNA in the presence of chemical substance/,"yeast gene YPL196W, ratio to control without chemical",1.2
same,The level of expressed mRNA in the presence of chemical substance/,"yeast gene YPL206C, ratio to control without chemical",1.0
same,The level of expressed mRNA in the presence of chemical substance/,"yeast gene YPL222W, ratio to control without chemical",0.7
same,The level of expressed mRNA in the presence of chemical substance/,"yeast gene YPR023C, ratio to control without chemical",0.9
same,The level of expressed mRNA in the presence of chemical substance/The level of expressed mRNA in the absence of chemical substance,yeast gene YPR103W,1.0
same,The level of expressed mRNA in the presence of chemical substance/The level of expressed mRNA in the absence of chemical substance,yeast gene YPR108W,1.6
same,The level of expressed mRNA in the presence of chemical substance/,"yeast gene YPR151C, ratio to control without chemical",1.4
same,The level of expressed mRNA in the presence of chemical substance/in the absence of chemical substance,yeast gene YPR184W,0.7
